Consider one molecule from patent US10610501B2, “Methods and materials for reducing ischemia-reperfusion injury” (The University of Pécs (Pécsi Tudományegyetem), priority 2014, dated 2020).

Molecules are shown by their SMILES.

What all share (format): in vivo, rat
The subject of test [1] is Wistar albino rats, ischemia-reperfusion. The experiment in a line: Reduced glutathione (GSH) levels in whole blood after ischemia-reperfusion. The protocol:
(§1) The rats were divided randomly into four groups. The first group was a group of operated rats that underwent ischemia followed by an hour-long reperfusion without being treated with ABA (operated untreated control). The other three groups included operated rats that underwent ischemia followed by an hour-long reperfusion with an ABA treatment (intravenously; final concentration of 100 μM) either 20 minutes, 40 minutes, or 60 minutes before reperfusion. Upon completion of the one-hour reperfusion, the rats were anesthetized with intraperitoneal injection of ketamine (40 mg/kg) and diazepam (5 mg/kg) and evaluated.
(§2) Rats were randomly divided into five groups. The first group was a group of operated rats that underwent ischemia followed by an hour-long reperfusion without being treated with ABA (operated untreated control). […] Upon completion of the one-hour reperfusion, the rats were anesthetized with intraperitoneal injection of ketamine (40 mg/kg) and diazepam (5 mg/kg) and evaluated.
(§3) In another dosage experiment, rats were randomly divided into five groups. […] Upon completion of the one-hour reperfusion, the rats were anesthetized with intraperitoneal injection of ketamine (40 mg/kg) and diazepam (5 mg/kg) and evaluated.
(§4) Following the anesthesia, an abdominal opening technique was performed by a midline laparotomy incision. […] Right after the one-hour reperfusion treatment period, peripheral blood samples were collected and evaluated.
(§5) Malondialdehyde (MDA) levels were determined in anti-coagulated whole blood using a colorimetric assay as described elsewhere (Ohakawa et al., Anal. Biochem., 95:351-8 (1979)). Reduced glutathione (GSH) levels, as opposed to oxidized GSH, were measured in anti-coagulated whole blood using a colorimetric assay as described elsewhere (Sedlak and Lindsay, Anal. Biochem., 25:192-205 (1968)). Superoxide dismutase (SOD) enzyme activity was measured in washed red blood cells using a colorimetric assay as described elsewhere (Misra and Fridovich, J. Biol. Chem., 247:3170-3175 (1972)). […]

Test [2] has the same test system. Kind of test: Inhibition of oxidative stress during the ischemia-reperfusion process, stress markers taken together. The protocol:
(§6) Rats were randomly divided into five groups. The first group was a group of operated rats that underwent ischemia followed by an hour-long reperfusion without being treated with ABA (operated untreated control). The other four groups included operated rats that underwent ischemia followed by an hour-long reperfusion with an intravenous ABA treatment 20 minutes before reperfusion at a final concentration of either 10 μM, 50 μM, 100 μM, or 500 μM of ABA. Upon completion of the one-hour reperfusion, the rats were anesthetized with intraperitoneal injection of ketamine (40 mg/kg) and diazepam (5 mg/kg) and evaluated.
as §3, §4
Malondialdehyde (MDA) levels were determined in anti-coagulated whole blood using a colorimetric assay as described elsewhere (Ohakawa et al., Anal. Biochem., 95:351-8 (1979)). […]

The test system is the same in test [3]. The experiment in a line: Malondialdehyde (MDA) levels in whole blood after ischemia-reperfusion (infrarenal aorta occlusion). As to the method:
as §1, §2, §3, §4, §5

A further test has as its system SOD mRNA. Kind of test: SOD mRNA expression in renal tissue, semi-quantitative RT-PCR. The settings on record: increasing amount of ABA (10-500 μM) injected 40 minutes before reperfusion, FIG. 5. As to the method: as §6, with “In another dosage experiment, rats” for “Rats”, “40” for “20”
(§7) Following the anesthesia, an abdominal opening technique was performed by a midline laparotomy incision. See, FIGS. 1A-F. After repositioning the intestines, the aorta came into sight and was carefully isolated. After the isolation process, the aorta was occluded for one hour (ischemic period). The clamp was released at the end of the ischemic period to start the reperfusion for one hour. Right after the one-hour reperfusion treatment period, peripheral blood samples were collected and evaluated.
(§8) Total RNA was extracted from the renal tissue samples with TRI reagent (Sigma-Aldrich) according to the manufacturer's instructions. […]

In test [4] the test system is Wistar albino rats, ischemia-reperfusion. Kind of test: Total thiol groups (SH) in whole blood after ischemia-reperfusion. Conditions: 10, 50, 100 and 500 μM, 40 minutes before reperfusion; FIG. 4. As to the method:
as §6, with “In another dosage experiment, rats” for “Rats”, “40” for “20”
Following the anesthesia, an abdominal opening technique was performed by a midline laparotomy incision. See, FIGS. 1A-F. After repositioning the intestines, the aorta came into sight and was carefully isolated. […] Right after the one-hour reperfusion treatment period, peripheral blood samples were collected and evaluated.
Malondialdehyde (MDA) levels were determined in anti-coagulated whole blood using a colorimetric assay as described elsewhere (Ohakawa et al., Anal. Biochem., 95:351-8 (1979)). Reduced glutathione (GSH) levels, as opposed to oxidized GSH, were measured in anti-coagulated whole blood using a colorimetric assay as described elsewhere (Sedlak and Lindsay, Anal. Biochem., 25:192-205 (1968)). […]

The test system of the next test is PPAR-γ mRNA. The experiment in a line: PPAR-γ mRNA expression in renal tissue, semi-quantitative RT-PCR. The settings on record: ABA 40 minutes before reperfusion, FIG. 6. The protocol:
as §6, with “In another dosage experiment, rats” for “Rats”, “40” for “20”
as §7, §8

Test [5] relates to Superoxide dismutase (SOD). The experiment in a line: Superoxide dismutase (SOD) enzyme activity in washed red blood cells after ischemia-reperfusion. As to the method: as §1, §2, §3, §4, §5
The next test relates to skeletal muscle. The experiment in a line: Histological analysis of skeletal muscle (m. tensor fasciae latae) after ischemia-reperfusion. Conditions: 100 μM i.v. at 20th minute of 1 h ischemia, 1 h reperfusion; versus ischemic reperfused operated controls; FIG. 7C. As to the method:
Wistar albino rats (250-280 g) were sham operated (control without ischemia-reperfusion treatment), subjected to ischemia followed by reperfusion (ischemia-reperfusion control), or subjected to ischemia followed by reperfusion with ABA being injected intravenously at a final concentration of 100 μM at the 20th minute of the one hour long ischemic period, which was followed by a one-hour reperfusion. After the one-hour reperfusion periods, tissue samples were obtained from the hind limb (m. tensor fasciae latae) of the rats and fixed in 10% buffered formaldehyde prior to being processed in a paraffin-embedded block. Four-micrometer-thick sections were cut and stained with hematoxylin and eosin.

Turning to `CC1=CC(=O)CC(C)(C)[C@@]1(O)/C=C/C(C)=C\C(=O)O` [ABA, (2Z,4E)-5-[(1S)-1-hydroxy-2,6,6-trimethyl-4-oxocyclohex-2-en-1-yl]-3-methylpenta-2,4-dienoic acid], the “reduced GSH levels” value in test [1] (100 μM final concentration, administered 40 or 60 minutes prior to reperfusion, FIG. 2) is “increases in reduced GSH levels”; in test [1] (50, 100 and 500 μM, 20 minutes before reperfusion, FIG. 3), “decrease in the levels of reduced GSH levels”; in test [1] (50, 100 and 500 μM, 40 minutes before reperfusion, FIG. 4), “increase in the levels of reduced GSH levels”. Also, in test [2] (20 minutes before reperfusion), the “concentration as low as which ABA inhibits oxidative stress” value worked out at 10 µM. Moreover, the “levels as low as which ABA inhibits oxidative stress” value in test [2] (40 minutes before reperfusion) is 10 to 50 µM. The “level of MDA” value is listed as “efficiently diminished the level of MDA at all time-points tested” in test [3] (100 μM final concentration, superior mesenteric vein, 0, 20, 40 and 60 minutes before reperfusion, blood after 1 h ischemia and 1 h reperfusion, FIG. 2); “efficiently diminished the level of MDA” in test [3] (10, 50, 100 and 500 μM final concentration, 20 minutes before reperfusion, FIG. 3); “efficiently diminished the level of MDA” in test [3] (100 and 500 μM final concentration, 40 minutes before reperfusion, FIG. 4). The “SOD mRNA expression” value with SOD mRNA is “increased levels of SOD mRNA expression”. Further, the “levels of SH (total thiol groups)” value in test [4] was “increase in the levels of SH”. Also, the “expression of PPAR-γ mRNA” value in the test with PPAR-γ mRNA was “increased expression of PPAR-γ mRNA”. The SOD activity result in test [5] (100 μM final concentration, all time-points tested (0, 20, 40, 60 minutes before reperfusion), FIG. 2) was “increases in SOD activity at all time-points tested”; in test [5] (10, 100 and 500 μM, 40 minutes before reperfusion, FIG. 4) it was “increase in SOD activity”; in test [5] (100 and 500 μM, 20 minutes before reperfusion, FIG. 3) it was “increase in SOD activity”. In addition, in the test on skeletal muscle, the “extracellular oedema (fiber separation)” value is “minimal extracellular oedema”. Besides, the intercellular vacuolization result with skeletal muscle is given as “near complete absence of intercellular vacuolization”. The “tissue and cell architecture” value in the test with skeletal muscle was “noticeable helped to preserve of the normal tissue and cell architecture”.
